Tests used:
Format in all cases: physicochemical
[1] = Particle size distribution by laser diffraction (Sympatec) after processing; details: for Particle Size Distribution Initial Span / Particle Size Distribution Initial X50 / Particle Size Distribution Initial X90: micronized sucrose; for Physical stability after micronization judged from size distribution: laser diffraction, Tables 4 and 5
Source text: When referred to herein, the term “optical diameter” indicates the size of a particle as measured using a laser diffraction particle size analyzer equipped with a dry powder dispenser (e.g., Sympatec GmbH, Clausthal-Zellerfeld, Germany).
(§1) A portion of the micronized GP was also conditioned using an in-process conditioning system wherein nitrogen conditioning gas was supplied to the in-process conditioning system and was controlled for flow rate, temperature and humidity. The conditioning gas was humidified through a droplet evaporation chamber after which it was directed to a mixing zone. In the mixing zone, the conditioning gas was mixed with the jet-milled aerosol comprising the micronized GP. The aerosol then entered a conditioning zone where annealing of the micronized GP occurred. The particle residence time through the conditioning zone was adjusted by means of the conditioning zone chamber geometry and/or the gas flow rate through the conditioning zone chamber. After passing through the conditioning zone, the micronized GP particles reached the cyclone-collection zone where the solid particles were separated from the gas phase and transported to a collection vessel. Upon completion of the batch processing, the collector was disengaged and transferred to a glove box for sampling. The sampling occurred in a <5% relative humidity environment. Samples were then analyzed for particle size distribution and amorphous content.
(§2) Both micronized sucrose batches were analyzed for particle size distribution by Sympatec laser diffraction.

[2] = as above; details: for Particle Size Distribution Initial X10: micronized sucrose; for D10 / D50 / D90 / Span: micronized fluticasone propionate
[3] = Physical stability: particle size distribution and fusing after 1-day exposure to 25° C. and 60% relative humidity; details: micronized sucrose; for Physical Stability: 25° C./60% RH; for Stability of powder on exposure: Sucrose A by visual observation, Sucrose B exposed to 25° C./60% RH
Source text: When used to refer to the conditioned particulate material described herein, the terms “physical stability” and “physically stable” refer to a composition that is resistant to one or more of particle fusing, aggregation, agglomeration, and particle size changes. In certain embodiments, physical stability may be evaluated through exposing the particulate material to accelerated degradation conditions, such as increased temperature and/or humidity as described herein.
as §2

[4] = Amorphous content by (dynamic) vapor sorption; details: for Amorphous content by water vapor sorption isotherm / Amorphous content by ethanol vapor sorption isotherm: 25° C.; for Amorphous content by water vapor sorption isotherm: FIG. 13; for Amorphous content by ethanol vapor sorption isotherm: FIG. 9 / FIG. 11
Source text: as §1
(§3) The amorphous content by vapor sorption and particle morphology for both batches were also assessed. FIG. 9 provides the ethanol vapor sorption isotherm at 25° C. for both batches of micronized budesonide.
(§4) The amorphous content by vapor sorption and particle morphology for both batches were also assessed. FIG. 11 provides the ethanol vapor sorption isotherm at 25° C. for both batches of micronized fluticasone.
All batches were also analyzed for amorphous content by dynamic vapor sorption using n=2 replicates per collector.
(§5) The amorphous content by vapor sorption and particle morphology for both batches of micronized sucrose were also assessed. FIG. 13 provides the water vapor sorption isotherm at 25° C. for both batches of micronized sucrose.

[5] = Particle morphology by electron micrograph / SEM; details: FIG. 10 / FIG. 12 / FIG. 14
Method: as §3, §4, §5

[6] = Stability diagram (glass transition plasticization curve combined with sorption isotherm); details: from stability diagram FIG. 18
Source text: Crystallization of an amorphous phase typically occurs rapidly when the amorphous material is exposed to conditions that exceed its glass transition temperature, usually twenty degrees Celsius above the glass transition temperature (Lechuga-Ballesteros, D.; Miller, D. P.; Zhang, J., Residual water in amorphous solids, measurement and effects on stability. In Progress in Amorphous Food and Pharmaceutical Systems, Levine, H., Ed. The Royal Society of Chemistry: London, 2002; pp 275-316). Exposure of amorphous material to temperature in excess of the glass transition can be achieved in the absence of any solvent by exposing the amorphous material to a stream of hot air above its glass transition temperature. However, the glass transition temperature is also a function of the fraction of solvent present in the amorphous material, an effect known as plasticization.
In addition, the solvent content held in an amorphous material is a function of the vapor concentration of the solvent surrounding the amorphous solid. The sorption isotherm of a given material is a representation of the amount of solvent in the amorphous material as a function of the solvent activity (which is proportional to the solvent vapor pressure to saturation solvent vapor pressure ratio) at a given temperature. […]

OC[C@H]1O[C@@](CO)(O[C@H]2O[C@H](CO)[C@@H](O)[C@H](O)[C@H]2O)[C@@H](O)[C@@H]1O [Sucrose A, Sucrose]
Particle Size Distribution Initial Span ([1]; listed as Sucrose 1): 2.4
Particle Size Distribution Initial X50 ([1]; listed as Sucrose 1): 1.7 μm
Particle Size Distribution Initial X90 ([1]; listed as Sucrose 1): 4.5 μm
Particle Size Distribution Initial X10 ([2]; listed as Sucrose 1): 0.5 μm
Physical Stability ([3]; listed as Sucrose 1): Unstable,
Stability of powder on exposure [3]: fusing of the material
Water relative pressure at which weight loss is seen ([4]; water vapor sorption isotherm at 25° C.): 30 % p/po
Amorphous content by water vapor sorption isotherm [4]: remained substantially amorphous

OC[C@H]1O[C@@](CO)(O[C@H]2O[C@H](CO)[C@@H](O)[C@H](O)[C@H]2O)[C@@H](O)[C@@H]1O [Sucrose B, Sucrose]
Particle Size Distribution Initial Span ([1]; listed as Sucrose 2): 1.9
Particle Size Distribution Initial X50 ([1]; listed as Sucrose 2): 2.2 μm
Particle Size Distribution Initial X90 ([1]; listed as Sucrose 2): 4.9 μm
Particle Size Distribution Initial X10 ([2]; listed as Sucrose 2): 0.6 μm
Physical Stability [3]: Stable,
Particle Size Distribution T = 1 day at 25° C./60% RH Span ([3]; T = 1 day at 25° C./60% RH): 1.9
Particle Size Distribution T = 1 day at 25° C./60% RH X10 ([3]; T = 1 day at 25° C./60% RH): 0.7 μm
Particle Size Distribution T = 1 day at 25° C./60% RH X50 ([3]; T = 1 day at 25° C./60% RH): 2.5 μm
Particle Size Distribution T = 1 day at 25° C./60% RH X90 ([3]; T = 1 day at 25° C./60% RH): 5.2 μm
Stability of powder on exposure [3]: good stability
Amorphous content by water vapor sorption isotherm [4]: stable and showed no crystallization event
Particle morphology by SEM, annealed compared with unannealed material [5]: smoother surfaces and more rounded edges

C[N+]1(C)CCC(OC(=O)C(O)(c2ccccc2)C2CCCC2)C1.[Br-] (stereo not drawn) [glycopyrrolate, 3-[(cyclopentylhydroxyphenylacetyl)oxy]-1,1-dimethylpyrrolidinium bromide]
RH required to promote annealing ([6]; at 60° C.): 10 % RH
RH at which fast crystallization of amorphous material will occur ([6]; in the range of 20-40° C.): > 50%

CCC(=O)O[C@]1(C(=O)SCF)[C@H](C)C[C@H]2[C@@H]3C[C@H](F)C4=CC(=O)C=C[C@]4(C)[C@@]3(F)[C@@H](O)C[C@@]21C [Micronized Fluticasone propionate, Batch 1 (unannealed)]
Physical stability after micronization judged from size distribution [1]: agglomeration
D10 [2]: 0.5 μm
D50 [2]: 1.5 μm
D90 [2]: 3.4 μm
Span [2]: 2.0
Ethanol relative pressure at which weight loss is seen ([4]; ethanol vapor sorption isotherm at 25° C.): 60 % p/po
Amorphous content by ethanol vapor sorption isotherm [4]: remained substantially amorphous

CCC(=O)O[C@]1(C(=O)SCF)[C@H](C)C[C@H]2[C@@H]3C[C@H](F)C4=CC(=O)C=C[C@]4(C)[C@@]3(F)[C@@H](O)C[C@@]21C [Micronized Fluticasone propionate, Batch 2 (annealed)]
Physical stability after micronization judged from size distribution [1]: good physical stability
D10 [2]: 0.5 μm
D50 [2]: 1.4 μm
D90 [2]: 3.1 μm
Span [2]: 1.9
Amorphous content by ethanol vapor sorption isotherm [4]: stable and showed no crystallization event
Particle morphology by SEM, annealed compared with unannealed material [5]: smoother surfaces and more rounded edges

Source: patent US11471468B2, “Methods and systems for conditioning of particulate crystalline materials” (Pearl Therapeutics, Inc., priority 2013, dated 2022)
